Each block holds one compound with its values, some of them ahead of it.
Key:
[1] = UV irradiation of suspensions in oils, HPLC analysis; format: physicochemical; conditions: irradiated 4 hours; for Brexpiprazole (area) / Compound I (area) / Compound II (area): HPLC
Experimental: [table] Suspensions of brexpiprazole anhydrate or brexpiprazole dihydrate (about 10 mg per experiment) in different oils (about 105 mg per suspension) were prepared and irradiated for 4 hours.

[2] = UV exposure of solid brexpiprazole forms (Atlas Suntester XLS+); format: physicochemical; conditions: 60 h Suntester
Description: Brexpiprazole anhydrate and brexpiprazole dihydrate were respectively exposed to UV-radiation using an appropriate illumination device (Atlas Suntester XLS+) at 250 W/m^2 for 60 hrs, which corresponds to a total UV light intensity of […].

[3] = UV lamp irradiation of brexpiprazole solution in toluene/methanol; format: physicochemical
Experimental: For the structure determination of the compound of formula II in Example 2 it was therefore necessary to produce larger quantities of that compound. […] The suspension was heated to 50° C. After stirring for 10 minutes, a clear solution was obtained. The solution was put into a transparent glass vial and irradiated for 18 h by a UV lamp (UVHQ 250 Z by “UV Technik Speziallampen”; radiation strength UVC/UVB/UVA: 38 W at 200 nm-280 nm; 20 W at 280 nm-315 nm; 18 W at 315 nm-400 nm). A light brown, clear solution was obtained. A mixture of brexpiprazole and compound II was obtained (19:81 area %).

[4] = biological target: dopamine D2 receptors (Homo sapiens, UniProt P14416); conditions: cited from earlier work
dopamine D2 receptors, sequence (P14416 whole entry): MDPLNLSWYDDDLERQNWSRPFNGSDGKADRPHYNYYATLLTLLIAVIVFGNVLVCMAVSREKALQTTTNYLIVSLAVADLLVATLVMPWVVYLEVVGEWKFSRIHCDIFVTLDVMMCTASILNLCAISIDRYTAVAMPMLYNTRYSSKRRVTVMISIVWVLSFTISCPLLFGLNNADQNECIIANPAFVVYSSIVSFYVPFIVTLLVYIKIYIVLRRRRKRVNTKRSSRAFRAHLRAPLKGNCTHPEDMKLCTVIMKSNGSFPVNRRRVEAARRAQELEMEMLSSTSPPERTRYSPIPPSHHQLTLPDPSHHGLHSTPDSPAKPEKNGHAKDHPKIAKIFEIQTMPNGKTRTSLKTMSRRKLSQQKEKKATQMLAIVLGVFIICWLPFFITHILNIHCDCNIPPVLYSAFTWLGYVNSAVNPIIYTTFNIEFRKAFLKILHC

[5] = biological target: T1, serotonin 5-HT1A receptors (Homo sapiens, UniProt P08908); conditions: cited from earlier work
T1 sequence (P08908 1-422): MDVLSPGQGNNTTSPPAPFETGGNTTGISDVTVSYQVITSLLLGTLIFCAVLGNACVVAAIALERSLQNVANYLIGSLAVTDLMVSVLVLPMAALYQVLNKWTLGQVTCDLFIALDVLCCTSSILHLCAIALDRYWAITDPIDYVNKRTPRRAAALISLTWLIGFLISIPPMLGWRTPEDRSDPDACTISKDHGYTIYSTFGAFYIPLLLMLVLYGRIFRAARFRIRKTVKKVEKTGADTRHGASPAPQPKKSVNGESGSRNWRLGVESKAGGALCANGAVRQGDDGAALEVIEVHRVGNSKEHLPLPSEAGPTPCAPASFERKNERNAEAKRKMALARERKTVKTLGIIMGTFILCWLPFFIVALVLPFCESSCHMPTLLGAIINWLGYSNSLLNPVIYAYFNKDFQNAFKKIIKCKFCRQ

[6] = biological target: serotonin 5-HT2A receptors (Homo sapiens, UniProt P28223); conditions: cited from earlier work
serotonin 5-HT2A receptors, sequence (P28223 whole entry): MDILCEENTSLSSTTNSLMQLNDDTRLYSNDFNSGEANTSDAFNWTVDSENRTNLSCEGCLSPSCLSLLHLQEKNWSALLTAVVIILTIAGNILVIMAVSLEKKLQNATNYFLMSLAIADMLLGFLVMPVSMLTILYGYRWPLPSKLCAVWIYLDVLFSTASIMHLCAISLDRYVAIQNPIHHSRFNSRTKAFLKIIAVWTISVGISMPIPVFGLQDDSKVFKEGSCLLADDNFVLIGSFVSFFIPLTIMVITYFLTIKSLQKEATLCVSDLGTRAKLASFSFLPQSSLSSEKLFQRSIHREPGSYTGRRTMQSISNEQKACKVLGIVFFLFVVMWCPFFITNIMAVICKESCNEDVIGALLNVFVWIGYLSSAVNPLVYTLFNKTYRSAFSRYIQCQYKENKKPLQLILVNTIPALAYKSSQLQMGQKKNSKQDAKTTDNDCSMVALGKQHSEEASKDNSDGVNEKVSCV

[7] = suspension in castor oil, listed as Brx. Anhydrate
[8] = suspension in peanut oil, listed as Brx. Anhydrate
[9] = suspension in castor oil, listed as Brx. Dihydrate
[10] = suspension in peanut oil, listed as Brx. Dihydrate
[11] = toluene/methanol solution, UV lamp 18 h

Brexpiprazole (area) [1, 7]: 99.6% | Compound I (area) [1, 7]: 0.0% | Compound II (area) [1, 7]: 0.4% | Brexpiprazole (area) ([1]; suspension in corn oil): 99.8% | Compound I (area) ([1]; suspension in corn oil): 0.0% | Compound II (area) ([1]; suspension in corn oil): 0.2% | Brexpiprazole (area) [1, 8]: 99.8% | Compound I (area) [1, 8]: 0.0% | Compound II (area) [1, 8]: 0.2%
SMILES: O=c1ccc2ccc(OCCCCN3CCN(c4cccc5sccc45)CC3)cc2[nH]1 [Brexpiprazole Anhydrate]

sensitivity to UV-induced dimerization vs anhydrate form [2]: significantly more sensitive | sensitivity to UV-induced dimerization vs brexpiprazole anhydrate ([1]; oil suspensions): more sensitive | Brexpiprazole (area) [1, 9]: 61.7% | Compound I (area) [1, 9]: 35.1% | Compound II (area) [1, 9]: 3.2% | Brexpiprazole (area) ([1]; suspension in corn oil): 64.9% | Compound I (area) ([1]; suspension in corn oil): 32.2% | Compound II (area) ([1]; suspension in corn oil): 3.0% | Brexpiprazole (area) [1, 10]: 64.3% | Compound I (area) [1, 10]: 32.4% | Compound II (area) [1, 10]: 3.3%
SMILES: O=c1ccc2ccc(OCCCCN3CCN(c4cccc5sccc45)CC3)cc2[nH]1 [Brexpiprazole Dihydrate]

SMILES: O=c1ccc2ccc(OCCCCN3CCN(c4cccc5sccc45)CC3)cc2[nH]1 [Brexpiprazole, 7-[4-[4-(1-Benzothiophen-4-yl)piperazin-1-yl]butoxy]quinolin-2(1H)-one]
sensitivity to UV-radiation vs brexpiprazole anhydrate ([3]; brexpiprazole in solution): significantly more sensitive | stability in control experiment ([3]; solution protected from UV light, vial wrapped in aluminum foil): remained stable | brexpiprazole remaining in mixture [3, 11]: 19 area % | compound II formed in mixture [3, 11]: 81 area % | activity at dopamine D2 receptors [4]: partial agonist activity | activity at serotonin 5-HT1A receptors [5]: partial agonist activity | activity at serotonin 5-HT2A receptors [6]: antagonist activity

Reference: patent US20200093821A1, “Pharmaceutical Compositions of a Benzothiophene Compound” (Hexal AG, priority 2016, published 2020)
